Literature values, collected in patent publication US8637323B2, “Fluorescent nitric oxide probes and associated methods” (Board of Regents, The University of Texas System, priority 2010, dated 2014).

What was measured:
[1] = calculated with published photophysical parameters

CC(=O)Oc1ccc2c(c1)Oc1cc(OC(C)=O)ccc1C21OC(=O)c2cc(N)c(N)cc21 [DAF-2 DA]
fluorescence enhancement [1]: ca. 200 fold | NO concentration giving a fluorescence signal comparable to 1 mM DHA: ~300 nM
